For one data set, the target named is T1, PvXyd3A (Paecilomyces variotii, UniProt A0A443HSR8).
T1 construct: gene C8Q69DRAFT_305813; native secreted enzyme purified from culture supernatant (Brewer's Spent Grain); 78 kDa; pI between 3 and 4; GH3; once misprinted PvXyd11A
T1 sequence (A0A443HSR8 28-800): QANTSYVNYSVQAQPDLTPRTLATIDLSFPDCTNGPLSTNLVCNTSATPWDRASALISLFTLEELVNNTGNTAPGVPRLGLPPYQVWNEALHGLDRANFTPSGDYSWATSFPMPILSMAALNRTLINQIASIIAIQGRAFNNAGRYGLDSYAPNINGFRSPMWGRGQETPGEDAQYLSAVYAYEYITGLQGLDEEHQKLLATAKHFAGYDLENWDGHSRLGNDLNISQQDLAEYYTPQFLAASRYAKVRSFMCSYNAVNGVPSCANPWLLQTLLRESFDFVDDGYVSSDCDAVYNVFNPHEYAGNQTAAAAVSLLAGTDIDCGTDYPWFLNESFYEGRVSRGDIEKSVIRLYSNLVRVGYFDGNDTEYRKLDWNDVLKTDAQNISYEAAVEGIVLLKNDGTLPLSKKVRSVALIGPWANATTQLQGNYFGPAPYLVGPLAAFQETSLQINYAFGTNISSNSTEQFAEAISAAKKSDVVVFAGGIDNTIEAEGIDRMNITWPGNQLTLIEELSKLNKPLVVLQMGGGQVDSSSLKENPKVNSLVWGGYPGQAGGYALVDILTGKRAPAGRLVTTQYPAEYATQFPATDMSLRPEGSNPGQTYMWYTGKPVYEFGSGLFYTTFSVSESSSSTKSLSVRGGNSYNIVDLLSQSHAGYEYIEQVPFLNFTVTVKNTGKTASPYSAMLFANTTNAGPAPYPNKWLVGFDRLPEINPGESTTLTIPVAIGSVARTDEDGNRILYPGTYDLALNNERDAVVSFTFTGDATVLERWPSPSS
As to the kind of experiment: pNP-X hydrolysis initial rates, Lineweaver-Burk. The conditions noted are these: competitive; substrate pNP-X; xylose at 5, 20 and 50 mM; methods text misprints the enzyme as Xyn3A. Format: biochemical.

Substrate in the data set “purified protein”: O=[N+]([O-])c1ccc(O[C@@H]2OC[C@@H](O)[C@H](O)[C@H]2O)cc1
As to the kind of experiment: purified protein. Format: biochemical, Paecilomyces variotii. Particulars: standard assay pH 4 citrate-phosphate, 50 °C, 0.1-20 mM pNP-X, Table 4 prints 0.45 ± 0.06 mM.

On to `OC1OC[C@@H](O)[C@H](O)[C@H]1O` (some centres unmarked) [X1, xylose], for which the affinity on PvXyd3A, expressed as Ki, was 10.2 mM. In other words, the millimolar range.

B1: PvXyd3A (Paecilomyces variotii) (protein)
chain: QANTSYVNYSVQAQPDLTPRTLATIDLSFPDCTNGPLSTNLVCNTSATPWDRASALISLFTLEELVNNTGNTAPGVPRLGLPPYQVWNEALHGLDRANFTPSGDYSWATSFPMPILSMAALNRTLINQIASIIAIQGRAFNNAGRYGLDSYAPNINGFRSPMWGRGQETPGEDAQYLSAVYAYEYITGLQGLDEEHQKLLATAKHFAGYDLENWDGHSRLGNDLNISQQDLAEYYTPQFLAASRYAKVRSFMCSYNAVNGVPSCANPWLLQTLLRESFDFVDDGYVSSDCDAVYNVFNPHEYAGNQTAAAAVSLLAGTDIDCGTDYPWFLNESFYEGRVSRGDIEKSVIRLYSNLVRVGYFDGNDTEYRKLDWNDVLKTDAQNISYEAAVEGIVLLKNDGTLPLSKKVRSVALIGPWANATTQLQGNYFGPAPYLVGPLAAFQETSLQINYAFGTNISSNSTEQFAEAISAAKKSDVVVFAGGIDNTIEAEGIDRMNITWPGNQLTLIEELSKLNKPLVVLQMGGGQVDSSSLKENPKVNSLVWGGYPGQAGGYALVDILTGKRAPAGRLVTTQYPAEYATQFPATDMSLRPEGSNPGQTYMWYTGKPVYEFGSGLFYTTFSVSESSSSTKSLSVRGGNSYNIVDLLSQSHAGYEYIEQVPFLNFTVTVKNTGKTASPYSAMLFANTTNAGPAPYPNKWLVGFDRLPEINPGESTTLTIPVAIGSVARTDEDGNRILYPGTYDLALNNERDAVVSFTFTGDATVLERWPSPSS
notes: native secreted enzyme purified from culture supernatant (Brewer's Spent Grain); 78 kDa; pI between 3 and 4; GH3; once misprinted PvXyd11A
For B1, the Michaelis constant (Km) in the data set “purified protein” came to 480 ± 60 µM.

Usually Ki stands for the dissociation constant of the complex between target and ligand, obtained from inhibition or displacement. As usually defined, the Km is the substrate concentration at which the rate is half of its maximum.

The values above are taken from paper PMC8228849, “Characterization of the Highly Efficient Acid-Stable Xylanase and β-Xylosidase System from the Fungus Byssochlamys spectabilis ATHUM 8891 (Paecilomyces variotii ATHUM 8891)” (Journal of Fungi, 2021).
